Results as given in ChEMBL document CHEMBL1201862, “PubChem BioAssay data set” (2004).
Activity calls are given as the source filed them.

Key:
[1] = target: NADPH oxidase 1 (Homo sapiens, UniProt Q9Y5S8); type: functional, cell-based;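 further: Cell-based assay with luminescence read-out, IC50 derived from inhibitor dose-response curves; intracellular ROS from endogenous NOX1 in intact HT29 colon cancer cells; potency of inhibitors that lower the ROS luminescence signal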
[2] = target: T1, Estrogen receptor beta (Homo sapiens, UniProt Q92731);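 further: recombinant ER-beta bound to coactivator SRC1 peptide in presence of estradiol agonist; inhibitors block coactivator peptide binding and lower the FRET signal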
[3] = target: T1, Estrogen receptor beta; test: ERβ–SRC-3 coactivator interaction inhibitors, confirmation, orthogonal assay, biochemical, ELISA, streptavidin-HRP readout (AID 1060)
[4] = target: Ras and Rab interactor 1/Tyrosine-protein kinase ABL1 (Homo sapiens, UniProt P00519+Q13671); type: functional;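 further: biochemical TR-FRET dose-response test measuring inhibition of binding between Rin1 and Abl proteins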
[5] = tested on: INS1; test: beta cell apoptosis inhibitors, cytokine rescue, dose response, luminescence, retest (AID 449756); type: functional, cell-based; conditions: Rattus norvegicus;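 further: cell death triggered by IL-1 beta plus TNF-alpha plus IFN-gamma mixture; protective hits raise ATP signal compared with cytokine alone wells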
[6] = target: T2, SUMO-activating enzyme (Homo sapiens, UniProt Q9UBT2); test: inhibitors of in vitro SUMOylation cascade, primary screen, biochemical, HTRF, uHTS (AID 2006); type: protein-complex assay
[7] = target: Bcl-2-like protein 1 (Homo sapiens, UniProt Q07817); test: BCL-XL inhibitors, dose response, selectivity assay for MCL1 inhibitor project, biochemical, fluorescence polarization, 1536-well (AID 2218)
[8] = target: T3, Induced myeloid leukemia cell differentiation protein Mcl-1 (Homo sapiens, UniProt Q07820); test: MCL1-BIM BH3 interaction inhibitors, dose response, biochemical, fluorescence polarization, BIM-BH3 peptide, 1536-well (AID 2217)
[9] = target: T4, Small ubiquitin-related modifier 1 (Homo sapiens, UniProt P63165); test: inhibitors of SUMO1 partner interactions, dose response, biochemical, FRET (AID 624383); type: functional; conditions: read-out: IC50_Mean
[10] = target: T3, Induced myeloid leukemia cell differentiation protein Mcl-1; type: functional
[11] = target: T4, Small ubiquitin-related modifier 1; test: inhibitors of SUMO1 peptide binding, dose response, biochemical, fluorescence polarization, uHTS hits (AID 624382); type: functional; conditions: read-out: IC50_Mean
[12] = target: T5, Bifunctional protein GlmU (Mycobacterium tuberculosis, UniProt P9WMN3); test: Inhibitors of Mycobacterial Glucosamine-1-phosphate acetyl transferase (GlmU). Secondary screen.; set-up: species or system Mycobacterium tuberculosis H37Rv
T5 sequence (P9WMN3 whole entry): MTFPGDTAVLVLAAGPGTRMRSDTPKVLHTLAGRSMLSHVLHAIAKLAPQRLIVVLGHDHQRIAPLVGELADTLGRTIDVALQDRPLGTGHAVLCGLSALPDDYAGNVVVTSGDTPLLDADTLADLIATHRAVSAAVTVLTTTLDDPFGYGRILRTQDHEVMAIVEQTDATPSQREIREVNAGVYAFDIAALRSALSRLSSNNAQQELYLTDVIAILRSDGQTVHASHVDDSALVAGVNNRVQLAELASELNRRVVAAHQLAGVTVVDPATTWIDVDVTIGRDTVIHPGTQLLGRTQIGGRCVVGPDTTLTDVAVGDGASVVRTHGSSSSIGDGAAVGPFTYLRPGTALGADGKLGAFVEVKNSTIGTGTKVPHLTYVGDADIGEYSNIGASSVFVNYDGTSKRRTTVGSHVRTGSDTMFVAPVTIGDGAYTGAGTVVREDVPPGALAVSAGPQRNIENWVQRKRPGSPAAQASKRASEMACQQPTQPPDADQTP

[13] = target: T2, SUMO-activating enzyme; test: SUMOylation inhibitor hit validation, confirmation, SUMOylation inhibitor project, biochemical, AlphaScreen (AID 2018); type: functional
[14] = target: Acyl-homoserine lactone acylase PvdQ (Pseudomonas aeruginosa (strain LESB58), UniProt Q9I194); test: P. aeruginosa PvdQ acylase inhibitors, dose response, biochemical, fluorescence, plate reader and imaging, cherry-picks (AID 493231)
[15] = target: Ion channel NompC (Danio rerio, UniProt Q7T1G6); test: Fluorescence counterscreen assay for TRPML3 agonists: dose response cell-based high-throughput screening assay to identify agonists of the transient receptor potential channel N1 (TRPN1). [Related pubchem assays: 1526, 1424, 1448 ]; type: functional
[16] = target: Mucolipin-3 (Homo sapiens, UniProt Q8TDD5); test: Dose response cell-based high-throughput screening assay for agonists of the transient receptor potential channel ML3 (TRPML3). [Related pubchem assays: 1526, 1424, 1448 ]; type: functional
[17] = cytotoxicity in HPDE-C7 cells, cell-based, fluorescence, HTS (AID 430); type: functional; conditions: Homo sapiens
[18] = target: T6, Corticotropin-releasing factor receptor 2/Corticotropin-releasing factor-binding protein (Homo sapiens, UniProt P24387+Q13324); test: Dose Response confirmation of uHTS hits for small molecule antagonists of the CRF-binding protein and CRF-R2 receptor complex.; type: functional; conditions: read-out: IC50_Mean
T6 sequence (Q13324 whole entry): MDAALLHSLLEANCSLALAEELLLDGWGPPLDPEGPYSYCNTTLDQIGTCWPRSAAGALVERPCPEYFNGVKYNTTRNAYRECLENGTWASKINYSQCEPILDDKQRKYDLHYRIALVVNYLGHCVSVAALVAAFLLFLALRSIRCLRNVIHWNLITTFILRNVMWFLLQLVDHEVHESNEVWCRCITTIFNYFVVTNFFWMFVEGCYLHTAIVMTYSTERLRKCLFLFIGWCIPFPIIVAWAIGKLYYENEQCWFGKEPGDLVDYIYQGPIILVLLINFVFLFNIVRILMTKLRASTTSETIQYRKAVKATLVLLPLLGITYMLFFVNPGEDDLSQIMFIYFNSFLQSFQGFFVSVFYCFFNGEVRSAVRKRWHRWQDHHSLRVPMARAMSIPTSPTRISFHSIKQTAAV
T6 sequence (P24387 whole entry): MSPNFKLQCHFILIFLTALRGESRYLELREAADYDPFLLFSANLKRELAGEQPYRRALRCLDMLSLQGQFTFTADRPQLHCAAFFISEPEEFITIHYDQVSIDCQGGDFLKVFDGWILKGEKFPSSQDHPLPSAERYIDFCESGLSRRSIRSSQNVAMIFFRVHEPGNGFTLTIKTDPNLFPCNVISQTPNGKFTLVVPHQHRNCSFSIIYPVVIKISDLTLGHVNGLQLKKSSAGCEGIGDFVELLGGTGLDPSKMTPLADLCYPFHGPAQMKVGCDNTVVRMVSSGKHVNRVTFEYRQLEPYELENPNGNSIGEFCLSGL

[19] = target: T6, Corticotropin-releasing factor receptor 2/Corticotropin-releasing factor-binding protein; test: activators of CRF receptor 2 with binding protein – uHTS hits, confirmation (AID 602473); type: functional; conditions: read-out: EC50_Mean
[20] = cytotoxicity in KRAS-transformed pancreatic duct cells, primary screen, cell-based, fluorescence, HTS (AID 431); type: functional; conditions: Homo sapiens;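 further: cell line used: HPDE-C7K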
[21] = target: T7, Aryl hydrocarbon receptor (Homo sapiens, UniProt P35869); test: Luminescence-based cell-based high throughput dose response assay for activators of the Aryl Hydrocarbon Receptor (AHR). [Related pubchem assays: 2796 (Primary screen (AHR activators in singlicate)), 2845 (Confirmation screen (AHR activators in triplicate)), 434939 (Counterscreen (PXR activators in triplicate)), 2804 (Summary (AHR activators))]; type: ADME
T7 sequence (P35869 whole entry): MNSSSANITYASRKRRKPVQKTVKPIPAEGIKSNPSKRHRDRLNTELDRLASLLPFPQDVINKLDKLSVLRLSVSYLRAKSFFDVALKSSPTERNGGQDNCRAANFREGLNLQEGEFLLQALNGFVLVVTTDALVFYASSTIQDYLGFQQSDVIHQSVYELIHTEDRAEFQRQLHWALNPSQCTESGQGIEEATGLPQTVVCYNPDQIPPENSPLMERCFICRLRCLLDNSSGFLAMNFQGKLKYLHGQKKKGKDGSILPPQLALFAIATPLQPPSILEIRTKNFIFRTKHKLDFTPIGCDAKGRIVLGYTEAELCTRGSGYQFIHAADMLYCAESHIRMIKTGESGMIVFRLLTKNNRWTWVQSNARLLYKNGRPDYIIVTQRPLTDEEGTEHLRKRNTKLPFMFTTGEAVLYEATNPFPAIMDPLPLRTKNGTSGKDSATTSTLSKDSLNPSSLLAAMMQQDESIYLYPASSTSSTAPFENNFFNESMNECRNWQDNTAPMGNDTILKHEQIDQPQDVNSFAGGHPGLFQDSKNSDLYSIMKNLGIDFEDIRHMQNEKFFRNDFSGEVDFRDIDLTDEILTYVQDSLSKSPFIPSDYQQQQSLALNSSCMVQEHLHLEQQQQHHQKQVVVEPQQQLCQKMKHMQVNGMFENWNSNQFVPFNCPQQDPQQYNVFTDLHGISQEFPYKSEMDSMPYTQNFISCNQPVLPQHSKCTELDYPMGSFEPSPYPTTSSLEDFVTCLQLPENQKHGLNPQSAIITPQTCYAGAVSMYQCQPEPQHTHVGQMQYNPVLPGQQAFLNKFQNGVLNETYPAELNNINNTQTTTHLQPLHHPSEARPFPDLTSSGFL

[22] = target: Eukaryotic translation initiation factor 4E (Mus musculus, UniProt P63073); test: eIF4E–eIF4G protein interaction inhibitors, dose response, biochemical, TR-FRET (AID 855); type: functional;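 further: potency for disrupting eIF4E binding to eIF4GI seen as loss of FRET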
[23] = target: T8, Tyrosine-protein phosphatase non-receptor type 7 (Homo sapiens, UniProt P35236); test: inhibitors of human HePTP phosphatase, […], biochemical, absorbance, leukemia target (AID 521); type: functional
T8 sequence (P35236 whole entry): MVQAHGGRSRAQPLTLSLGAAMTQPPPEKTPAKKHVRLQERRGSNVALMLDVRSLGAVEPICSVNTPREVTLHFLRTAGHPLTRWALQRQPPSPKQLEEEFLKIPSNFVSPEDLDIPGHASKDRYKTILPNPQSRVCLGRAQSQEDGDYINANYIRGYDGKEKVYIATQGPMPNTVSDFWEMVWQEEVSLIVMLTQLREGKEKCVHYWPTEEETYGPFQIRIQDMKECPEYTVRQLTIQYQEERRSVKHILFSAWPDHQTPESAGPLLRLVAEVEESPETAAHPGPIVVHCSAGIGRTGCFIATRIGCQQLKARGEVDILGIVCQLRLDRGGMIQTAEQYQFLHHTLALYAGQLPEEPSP

[24] = target: Bcl-2-like protein 10 (Homo sapiens, UniProt Q9HD36); test: displacers of TR3 peptide from Bcl-B, primary screen, selectivity assay for Bfl-1 inhibitor project, biochemical, fluorescence polarization, FITC-TR3 peptide (AID 748);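 further: fluorescence polarization from a fluorescein-labelled TR3 peptide binding purified Bcl-B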
[25] = target: T9, Dual specificity protein phosphatase 6 (Rattus norvegicus, UniProt Q64346); test: MKP-3 phosphatase inhibitors, primary screen, biochemical, rat enzyme, in vitro (AID 425)
T9 sequence (Q64346 whole entry): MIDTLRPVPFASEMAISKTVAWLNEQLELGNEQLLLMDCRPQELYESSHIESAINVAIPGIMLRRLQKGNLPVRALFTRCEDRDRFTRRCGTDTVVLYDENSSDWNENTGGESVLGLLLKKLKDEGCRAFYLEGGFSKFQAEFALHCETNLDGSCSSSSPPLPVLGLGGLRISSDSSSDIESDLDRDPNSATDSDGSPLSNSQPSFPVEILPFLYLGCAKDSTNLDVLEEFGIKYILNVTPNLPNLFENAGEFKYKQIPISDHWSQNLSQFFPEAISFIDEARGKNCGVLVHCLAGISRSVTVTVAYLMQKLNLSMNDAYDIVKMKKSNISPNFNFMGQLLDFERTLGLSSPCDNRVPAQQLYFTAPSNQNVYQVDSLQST

[26] = NIH-3T3 fibroblast cytotoxicity, dose response, cytotoxicity control, cell-based, fluorescence, Alamar Blue, secondary assay (AID 2327); type: functional;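 further: NIH-3T3 mouse fibroblasts cultured with fluconazole at 8 µg/mL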
[27] = Luminescence Cell-Based Dose Retest to Confirm Inhibitors of Cancer Stem Cells. [Related pubchem assays (depositor defined):AID2717, AID2721]; type: functional; conditions: Homo sapiens
[28] = C. albicans growth with fluconazole, confirmation, fluorescence, retest (AID 2467); type: functional, cell-based

Acyl-homoserine lactone acylase PvdQ, sequence (Q9I194 24-193 limits assumed): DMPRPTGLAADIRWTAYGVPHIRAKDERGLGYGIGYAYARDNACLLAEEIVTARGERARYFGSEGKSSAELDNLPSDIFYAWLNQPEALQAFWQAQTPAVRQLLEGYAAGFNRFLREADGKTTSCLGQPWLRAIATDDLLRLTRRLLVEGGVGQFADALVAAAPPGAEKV
Acyl-homoserine lactone acylase PvdQ, sequence (Q9I194 217-762 limits assumed): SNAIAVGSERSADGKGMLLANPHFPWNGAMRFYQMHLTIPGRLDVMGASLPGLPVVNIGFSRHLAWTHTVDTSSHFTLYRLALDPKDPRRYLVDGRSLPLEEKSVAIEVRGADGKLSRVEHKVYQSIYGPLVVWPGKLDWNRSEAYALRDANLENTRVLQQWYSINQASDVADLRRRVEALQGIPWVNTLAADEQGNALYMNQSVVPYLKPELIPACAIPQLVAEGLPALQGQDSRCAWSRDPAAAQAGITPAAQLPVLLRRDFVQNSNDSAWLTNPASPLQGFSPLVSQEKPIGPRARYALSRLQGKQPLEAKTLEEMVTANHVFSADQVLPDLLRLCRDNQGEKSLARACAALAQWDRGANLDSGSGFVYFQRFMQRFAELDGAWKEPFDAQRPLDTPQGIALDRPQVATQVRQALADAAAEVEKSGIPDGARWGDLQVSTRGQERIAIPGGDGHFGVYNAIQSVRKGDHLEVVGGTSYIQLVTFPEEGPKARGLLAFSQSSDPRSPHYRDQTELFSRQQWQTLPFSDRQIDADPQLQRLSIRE
T4 sequence (P63165 whole entry): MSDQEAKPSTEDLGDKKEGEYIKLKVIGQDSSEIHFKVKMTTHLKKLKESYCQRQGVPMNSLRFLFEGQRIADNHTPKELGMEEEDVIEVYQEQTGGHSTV
Ion channel NompC, sequence (Q7T1G6 whole entry): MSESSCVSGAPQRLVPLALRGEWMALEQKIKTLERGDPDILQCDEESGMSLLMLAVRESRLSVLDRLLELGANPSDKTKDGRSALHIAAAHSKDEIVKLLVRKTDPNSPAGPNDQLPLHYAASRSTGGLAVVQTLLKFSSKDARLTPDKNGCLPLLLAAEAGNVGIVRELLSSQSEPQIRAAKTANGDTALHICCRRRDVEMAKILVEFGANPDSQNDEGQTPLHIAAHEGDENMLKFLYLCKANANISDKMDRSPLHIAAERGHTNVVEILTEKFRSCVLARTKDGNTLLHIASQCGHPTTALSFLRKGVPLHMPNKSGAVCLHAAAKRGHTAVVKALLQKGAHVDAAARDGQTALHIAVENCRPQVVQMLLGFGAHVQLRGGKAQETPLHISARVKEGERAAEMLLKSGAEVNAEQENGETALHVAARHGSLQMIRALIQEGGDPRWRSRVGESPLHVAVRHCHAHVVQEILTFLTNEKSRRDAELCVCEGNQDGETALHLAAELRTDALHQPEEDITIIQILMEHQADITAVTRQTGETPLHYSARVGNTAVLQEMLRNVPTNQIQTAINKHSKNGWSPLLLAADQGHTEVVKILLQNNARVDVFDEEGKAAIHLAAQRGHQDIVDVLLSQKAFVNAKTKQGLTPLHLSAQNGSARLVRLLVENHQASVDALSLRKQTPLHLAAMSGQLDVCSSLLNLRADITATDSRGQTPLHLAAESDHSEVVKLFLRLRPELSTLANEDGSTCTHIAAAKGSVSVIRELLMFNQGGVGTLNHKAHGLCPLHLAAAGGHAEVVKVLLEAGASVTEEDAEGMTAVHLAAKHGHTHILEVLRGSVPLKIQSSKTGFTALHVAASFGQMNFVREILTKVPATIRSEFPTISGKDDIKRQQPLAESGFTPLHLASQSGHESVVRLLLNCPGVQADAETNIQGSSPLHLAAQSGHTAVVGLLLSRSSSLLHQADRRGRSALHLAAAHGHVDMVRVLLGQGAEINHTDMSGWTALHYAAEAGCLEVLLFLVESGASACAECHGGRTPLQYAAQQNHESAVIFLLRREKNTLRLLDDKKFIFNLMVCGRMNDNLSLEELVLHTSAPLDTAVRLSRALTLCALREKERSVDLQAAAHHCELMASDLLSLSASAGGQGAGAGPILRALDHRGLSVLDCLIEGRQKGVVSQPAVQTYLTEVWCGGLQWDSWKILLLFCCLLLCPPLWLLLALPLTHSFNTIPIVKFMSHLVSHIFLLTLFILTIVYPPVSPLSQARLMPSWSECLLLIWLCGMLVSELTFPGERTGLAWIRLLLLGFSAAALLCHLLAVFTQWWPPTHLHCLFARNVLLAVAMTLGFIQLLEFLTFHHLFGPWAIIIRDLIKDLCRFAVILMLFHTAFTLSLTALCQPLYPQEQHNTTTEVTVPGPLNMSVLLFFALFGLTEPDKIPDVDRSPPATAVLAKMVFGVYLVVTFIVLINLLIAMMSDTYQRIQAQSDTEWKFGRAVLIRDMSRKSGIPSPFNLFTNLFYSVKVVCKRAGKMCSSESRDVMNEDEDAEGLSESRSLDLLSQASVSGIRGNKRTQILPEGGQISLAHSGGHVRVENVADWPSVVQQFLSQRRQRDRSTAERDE
T2 sequence (Q9UBE0 whole entry): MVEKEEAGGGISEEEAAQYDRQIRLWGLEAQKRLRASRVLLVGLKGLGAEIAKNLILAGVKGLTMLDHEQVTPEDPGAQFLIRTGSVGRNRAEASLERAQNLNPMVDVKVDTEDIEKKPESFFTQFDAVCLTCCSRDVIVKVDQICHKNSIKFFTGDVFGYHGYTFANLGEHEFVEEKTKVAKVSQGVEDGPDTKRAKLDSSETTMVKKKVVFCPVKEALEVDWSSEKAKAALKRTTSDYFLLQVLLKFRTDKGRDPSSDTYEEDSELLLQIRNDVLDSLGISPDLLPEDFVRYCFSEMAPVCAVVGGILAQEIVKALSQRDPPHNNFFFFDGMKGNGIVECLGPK
T2 sequence (Q9UBT2 whole entry): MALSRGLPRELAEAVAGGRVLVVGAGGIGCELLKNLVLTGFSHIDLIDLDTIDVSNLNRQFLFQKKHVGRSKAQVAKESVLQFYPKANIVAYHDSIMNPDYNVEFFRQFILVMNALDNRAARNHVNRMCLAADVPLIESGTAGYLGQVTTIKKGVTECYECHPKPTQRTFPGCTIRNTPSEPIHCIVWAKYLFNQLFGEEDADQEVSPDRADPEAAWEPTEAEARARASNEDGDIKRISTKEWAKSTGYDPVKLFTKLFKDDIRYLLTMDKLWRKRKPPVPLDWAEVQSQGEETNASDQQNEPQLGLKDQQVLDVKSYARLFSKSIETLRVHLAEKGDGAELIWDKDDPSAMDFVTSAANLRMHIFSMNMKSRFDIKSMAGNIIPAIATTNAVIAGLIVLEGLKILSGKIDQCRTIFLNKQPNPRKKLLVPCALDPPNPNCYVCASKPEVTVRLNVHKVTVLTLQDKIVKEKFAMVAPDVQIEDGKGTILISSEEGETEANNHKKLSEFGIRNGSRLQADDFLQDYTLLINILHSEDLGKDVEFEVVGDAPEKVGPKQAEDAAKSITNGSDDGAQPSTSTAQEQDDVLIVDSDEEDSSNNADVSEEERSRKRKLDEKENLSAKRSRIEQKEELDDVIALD
Mucolipin-3, sequence (Q8TDD5 whole entry): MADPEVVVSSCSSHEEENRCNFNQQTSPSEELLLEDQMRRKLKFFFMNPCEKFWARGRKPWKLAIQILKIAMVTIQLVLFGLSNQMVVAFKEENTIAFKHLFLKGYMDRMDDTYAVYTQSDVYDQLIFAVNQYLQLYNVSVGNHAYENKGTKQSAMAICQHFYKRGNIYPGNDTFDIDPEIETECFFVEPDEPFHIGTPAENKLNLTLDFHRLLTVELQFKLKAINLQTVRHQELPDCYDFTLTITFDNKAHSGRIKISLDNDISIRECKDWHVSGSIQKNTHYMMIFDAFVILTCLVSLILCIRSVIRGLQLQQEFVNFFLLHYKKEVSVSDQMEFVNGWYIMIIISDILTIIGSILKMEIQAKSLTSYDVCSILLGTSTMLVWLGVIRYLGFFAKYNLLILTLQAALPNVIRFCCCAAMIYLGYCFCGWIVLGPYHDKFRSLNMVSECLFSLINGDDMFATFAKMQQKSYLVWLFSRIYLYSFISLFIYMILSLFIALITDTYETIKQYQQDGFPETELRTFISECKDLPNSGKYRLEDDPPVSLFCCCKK
NADPH oxidase 1, sequence (Q9Y5S8 whole entry): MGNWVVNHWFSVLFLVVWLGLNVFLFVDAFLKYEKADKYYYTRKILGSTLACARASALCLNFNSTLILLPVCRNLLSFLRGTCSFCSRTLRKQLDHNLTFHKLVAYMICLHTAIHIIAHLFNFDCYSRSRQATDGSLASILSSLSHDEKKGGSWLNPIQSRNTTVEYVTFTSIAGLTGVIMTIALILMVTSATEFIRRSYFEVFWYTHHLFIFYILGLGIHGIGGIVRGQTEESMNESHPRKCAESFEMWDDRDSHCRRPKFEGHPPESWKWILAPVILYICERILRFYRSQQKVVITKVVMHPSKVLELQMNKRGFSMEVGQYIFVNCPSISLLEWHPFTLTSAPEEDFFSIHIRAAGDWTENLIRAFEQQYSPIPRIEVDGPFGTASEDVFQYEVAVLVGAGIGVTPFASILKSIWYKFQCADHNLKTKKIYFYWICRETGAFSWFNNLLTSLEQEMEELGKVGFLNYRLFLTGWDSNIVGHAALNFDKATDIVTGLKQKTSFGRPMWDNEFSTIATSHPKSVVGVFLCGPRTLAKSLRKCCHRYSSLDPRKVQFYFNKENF
T3 sequence (Q07820 whole entry): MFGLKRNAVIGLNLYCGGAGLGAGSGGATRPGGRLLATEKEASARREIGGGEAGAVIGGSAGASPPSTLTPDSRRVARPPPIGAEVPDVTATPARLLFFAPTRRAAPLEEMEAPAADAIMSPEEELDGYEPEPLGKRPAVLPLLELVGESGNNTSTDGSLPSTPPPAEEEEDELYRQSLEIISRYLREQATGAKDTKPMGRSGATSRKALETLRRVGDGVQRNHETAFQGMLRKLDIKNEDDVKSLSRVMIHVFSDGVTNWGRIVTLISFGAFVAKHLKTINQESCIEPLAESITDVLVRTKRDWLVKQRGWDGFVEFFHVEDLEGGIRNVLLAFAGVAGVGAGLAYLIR

COc1cc([N+](=O)[O-])ccc1NC(=O)Nc1ccc(Oc2ccccc2)cc1
IC50 [1]: > 17 µM (not active)

COc1cc(CCC(=O)OCC(=O)Nc2ncc(Cl)cc2Cl)cc(OC)c1OC
IC50 [2]: 9.58 µM (active) | IC50 [3]: 102 µM (not active)

COC(=O)c1cc(O)cc(OC)c1Oc1cc(C)cc(O)c1C(=O)O [ASTERRIC ACID]
IC50 [4]: 20.7 µM (inactive) | AC50 [5]: 8.13 µM (active) | IC50 [6]: 17.7 µM (active) | IC50 [7]: 54.2 µM (not active) | IC50 [8]: 5.48 µM (active) | IC50 [9]: 8.12 µM (active) | IC50 [10]: 2.42 µM (not active) | IC50 [11]: > 66.6 µM (inactive) | IC50 [12]: 82.7 µM (active) | IC50 [13]: 7.42 µM (active)

N#CC(c1ccc(Cl)nn1)c1c(F)cccc1Cl (centres undefined)
AC50 [14]: 4.04 µM (active)

COc1ccc(C(C#N)c2ccc(Cl)nn2)cc1 (centres undefined)
AC50 [14]: 6.48 µM (active)

O=S(=O)(Oc1ccccc1N1CCCCC1)c1ccccc1
EC50 [15]: > 29.9 µM (not active) | EC50 [16]: > 29.9 µM (not active)

C=C(C)COc1ccc(-c2n[nH]cc2Oc2ccccc2OC)c(O)c1
EC50 [17]: 12.3 µM (active) | IC50 [18]: 1.91 µM (active) | EC50 [19]: > 53 µM (inactive) | EC50 [20]: 9.78 µM (active)

Cc1ccc(S(=O)(=O)c2c(C)nn(C(C)(C)C)c2OC(=O)C(C)(C)C)cc1
EC50 [15]: > 29.9 µM (not active) | EC50 [16]: 5.15 µM (active)

COc1ccc(C(=O)Nc2cc(OC)c(NC(=O)c3ccco3)cc2OC)cc1
EC50 [21]: 1.76 µM (active)

C=C(NNc1c(F)c(F)nc(F)c1F)c1ccncc1
IC50 [1]: > 17 µM (not active)

O=C(OC1CCCCC1)c1ccc2c(c1)C1C=CCC1C(C(=O)O)N2 (centres undefined)
IC50 [22]: 5.02 µM (active) | IC50 [23]: 0.84 µM (active) | IC50 [24]: 2 µM (active) | IC50 [25]: 1.83 µM (active)

Cc1ccc(S(=O)(=O)c2c(C)nn(C(C)(C)C)c2OC(=O)c2ccc(Br)o2)cc1
EC50 [26]: > 160 µM (inconclusive) | EC50 [17]: 4.41 µM (active) | AC50 [27]: 1.67 µM (active) | EC50 [28]: 0.805 µM (active) | EC50 [20]: 4.56 µM (active)
